The values that follow come from PMC9564503, “Anabaenopeptins from Nostoc edaphicum CCNP1411” (International Journal of Environmental Research and Public …, 2022).

Numbered stars: 1 amine (or outer) side, 2 acyl side, 3 side chain; on linkers, the order of the positions; unused ones are H or OH. Bridge positions count the residues as written; N and C are the ends. Square brackets hold non-standard residues; d marks the D form. Peptide text beside a SMILES is read from it. hPhe = N[C@@H](CCc1ccccc1)C(=O)O; NMeN = CN[C@@H](CC(N)=O)C(=O)O; CO = O=C([*:1])[*:2]

Assay [1] concerns trypsin. Put plainly: Trypsin inhibition assay. Type of assay: biochemical. The note with it: class symbol in IC50 column. As to the method:
The tests were performed in triplicates.
Table S2. Conditions and solvents used in the enzyme inhibition assays.
Enzyme Substrate Inhibitor bation time (min) ngth
Carboxypeptidase-A N-(4-methoxy-phenyl- Carboxypeptidase
(Sigma-Aldrich; azoformyl)-Phe-OH inhibitor from 5 min;
1.6 µM Montclair, CA, USA) (Sigma-Aldrich)
Elastase N-succinyl-Ala-Ala-Ala-p- Elastatinal
(Sigma-Aldrich) nitroanilide (Sigma-Aldrich) 20 min;
Thrombin N-p-tosyl-Gly-Pro-Lys-p- AEBSF
(Sigma-Aldrich) nitroanilide acetate salt (Sigma-Aldrich) 10 min;
Trypsin N-α-benzoyl-DL-arginine- Aprotinine
(Sigma-Aldrich) p-nitroanilide (Sigma-Aldrich) 15 min;
Figure S2. MRM chromatograms of anabaenopeptins produced by N. edaphicum CCNP1411.

The test system of assay [2] is CPA. Further details: method as in PMID 11000037, PMID 10340607, PMID 27641470. The conditions noted are these: ref [9],[23],[87]; read-out: IC50 against CPA; cited from earlier work.

Regarding `CC[C@H](C)[C@@H]1NC(=O)[C@H](NC(=O)N[C@H](C(=O)O)C(C)C)CCCCNC(=O)[C@H](Cc2ccccc2)NC(=O)[C@H](CC(N)=O)NC(=O)[C@H](CCc2ccccc2)NC1=O` [AP806Ne, [Lys–Leu*–Hph–Asn–Phe]CO–Val] ({Val-CO}-[dK]I[hPhe]NF; lactam 1-C), the “Enzyme Inhibition TRY (activity class)” value in assay [1] is “– (not active (inhibition below 10%))”.
Take `CC[C@H](C)[C@H](NC(=O)N[C@@H]1CCCCNC(=O)[C@H](Cc2ccccc2)NC(=O)[C@H](CC(N)=O)N(C)C(=O)[C@H](CCc2ccccc2)NC(=O)[C@H]([C@@H](C)CC)NC1=O)C(=O)O` [AP SA6, [Lys–Leu*–Hph–MeAsn–Phe]CO–Leu*] ({Ile-CO}-[dK]I[hPhe][NMeN]F; lactam 1-C): in assay [1], the “Enzyme Inhibition TRY (activity class)” value is “– (not active (inhibition below 10%))”.
For Tyr+CO[Lys+Ile+Hty+MeHty+Ile] [AP G], in assay [2], the concentration for half-maximal inhibition (IC50) – broadly, the midpoint of a concentration-inhibition curve – was 2 nM.
